Results on six compounds are retold here after ChEMBL document CHEMBL4804281, “STK4 inhibitors for treatment of hematologic malignancies” (2020).

The target in experiment [1] is Serine/threonine-protein kinase D3 (Homo sapiens) (UniProt O94806). Briefly: Inhibition of PKD3 in human NCI-H929 cells at 10 uM by mass spectroscopic analysis relative to control. In kind it is cell-based.
The target of experiment [2] is Activin receptor type-1 (Homo sapiens) (UniProt Q04771). Nature of the experiment: Inhibition of ALK2 in human NCI-H929 cells at 10 uM by mass spectroscopic analysis relative to control. It is filed as cell-based.
Activin receptor type-1 (Homo sapiens), sequence (Q04771 whole entry): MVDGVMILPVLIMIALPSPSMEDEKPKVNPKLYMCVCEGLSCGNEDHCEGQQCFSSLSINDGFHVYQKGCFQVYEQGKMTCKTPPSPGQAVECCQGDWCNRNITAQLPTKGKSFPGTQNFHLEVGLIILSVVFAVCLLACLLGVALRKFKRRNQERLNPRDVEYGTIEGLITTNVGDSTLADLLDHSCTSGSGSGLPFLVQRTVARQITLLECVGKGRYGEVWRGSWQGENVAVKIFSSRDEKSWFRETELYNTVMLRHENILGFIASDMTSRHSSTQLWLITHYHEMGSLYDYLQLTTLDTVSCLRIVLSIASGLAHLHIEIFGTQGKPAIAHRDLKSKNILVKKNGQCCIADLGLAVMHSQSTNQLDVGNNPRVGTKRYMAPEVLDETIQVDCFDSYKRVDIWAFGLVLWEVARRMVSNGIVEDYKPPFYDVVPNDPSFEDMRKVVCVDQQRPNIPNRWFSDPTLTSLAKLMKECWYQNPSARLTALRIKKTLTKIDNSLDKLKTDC
Experiment [3] concerns the target STE20-like serine/threonine-protein kinase (Homo sapiens) (UniProt Q9H2G2). Nature of the experiment: Inhibition of SLK in human NCI-H929 cells at 10 uM by mass spectroscopic analysis relative to control. It is filed as cell-based.
For experiment [4], the target named is T1, Serine/threonine-protein kinase 3 (Homo sapiens) (UniProt Q13188).
T1 sequence (whole entry): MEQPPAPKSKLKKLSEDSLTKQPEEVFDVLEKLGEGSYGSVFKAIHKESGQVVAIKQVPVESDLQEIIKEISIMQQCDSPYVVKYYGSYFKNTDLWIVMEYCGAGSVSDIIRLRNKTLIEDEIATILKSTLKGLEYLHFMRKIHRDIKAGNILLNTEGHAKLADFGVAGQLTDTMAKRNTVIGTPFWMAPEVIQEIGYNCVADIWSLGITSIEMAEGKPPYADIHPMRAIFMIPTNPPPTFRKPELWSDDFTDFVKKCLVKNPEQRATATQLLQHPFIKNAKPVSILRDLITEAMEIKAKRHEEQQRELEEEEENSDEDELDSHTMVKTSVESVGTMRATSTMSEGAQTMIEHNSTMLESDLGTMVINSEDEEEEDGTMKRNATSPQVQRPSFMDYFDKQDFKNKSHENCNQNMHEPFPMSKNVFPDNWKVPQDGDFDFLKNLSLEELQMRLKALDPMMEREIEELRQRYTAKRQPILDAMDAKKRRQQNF
Briefly: Inhibition of MST2 in human NCI-H929 cells at 10 uM by mass spectroscopic analysis relative to control. In kind it is cell-based.

Experiment [5] concerns the target Casein kinase I isoform gamma-2 (Homo sapiens) (UniProt P78368). Nature of the experiment: Inhibition of CK1g2 in human NCI-H929 cells at 10 uM by mass spectroscopic analysis relative to control. In kind it is cell-based.
In experiment [6] the target is Mitogen-activated protein kinase kinase kinase kinase 5 (Homo sapiens) (UniProt Q9Y4K4). Nature of the experiment: Inhibition of KHS1 in human NCI-H929 cells at 10 uM by mass spectroscopic analysis relative to control. In kind it is cell-based.
Experiment [7] has as its target Activin receptor type-1B (Homo sapiens) (UniProt P36896). Nature of the experiment: Inhibition of ALK4 in human NCI-H929 cells at 10 uM by mass spectroscopic analysis relative to control. It is filed as cell-based.
For experiment [8], the target named is Serine/threonine-protein kinase D2 (Homo sapiens) (UniProt Q9BZL6). Briefly: Inhibition of PKD2 in human NCI-H929 cells at 10 uM by mass spectroscopic analysis relative to control. It is filed as cell-based.
Experiment [9] has as its target Glycogen synthase kinase-3 alpha (Homo sapiens) (UniProt P49840). Nature of the experiment: Inhibition of GSK3A in human NCI-H929 cells at 10 uM by mass spectroscopic analysis relative to control. In kind it is cell-based.
For experiment [10], the target named is Serine/threonine-protein kinase 10 (Homo sapiens) (UniProt O94804). Nature of the experiment: Inhibition of LOK in human NCI-H929 cells at 10 uM by mass spectroscopic analysis relative to control. It is filed as cell-based.
The target of experiment [11] is 1-phosphatidylinositol 3-phosphate 5-kinase (Homo sapiens) (UniProt Q9Y2I7). Briefly: Inhibition of PIP5K3 in human NCI-H929 cells at 10 uM by mass spectroscopic analysis relative to control. In kind it is cell-based.
Experiment [12] deals with Glycogen synthase kinase-3 beta (Homo sapiens) (UniProt P49841). Nature of the experiment: Inhibition of GSK3B in human NCI-H929 cells at 10 uM by mass spectroscopic analysis relative to control. It is filed as cell-based.
In experiment [13] the target is Misshapen-like kinase 1 (Homo sapiens) (UniProt Q8N4C8). Briefly: Inhibition of MINK in human NCI-H929 cells by mass spectroscopic analysis. In kind it is cell-based. Conditions: concentration not given here.
The target of experiment [14] is Interleukin-1 receptor-associated kinase 1 (Homo sapiens) (UniProt P51617). Briefly: Inhibition of IRAK1 in human NCI-H929 cells at 10 uM by mass spectroscopic analysis relative to control. In kind it is cell-based.
Interleukin-1 receptor-associated kinase 1 (Homo sapiens), sequence (P51617 whole entry, looked up): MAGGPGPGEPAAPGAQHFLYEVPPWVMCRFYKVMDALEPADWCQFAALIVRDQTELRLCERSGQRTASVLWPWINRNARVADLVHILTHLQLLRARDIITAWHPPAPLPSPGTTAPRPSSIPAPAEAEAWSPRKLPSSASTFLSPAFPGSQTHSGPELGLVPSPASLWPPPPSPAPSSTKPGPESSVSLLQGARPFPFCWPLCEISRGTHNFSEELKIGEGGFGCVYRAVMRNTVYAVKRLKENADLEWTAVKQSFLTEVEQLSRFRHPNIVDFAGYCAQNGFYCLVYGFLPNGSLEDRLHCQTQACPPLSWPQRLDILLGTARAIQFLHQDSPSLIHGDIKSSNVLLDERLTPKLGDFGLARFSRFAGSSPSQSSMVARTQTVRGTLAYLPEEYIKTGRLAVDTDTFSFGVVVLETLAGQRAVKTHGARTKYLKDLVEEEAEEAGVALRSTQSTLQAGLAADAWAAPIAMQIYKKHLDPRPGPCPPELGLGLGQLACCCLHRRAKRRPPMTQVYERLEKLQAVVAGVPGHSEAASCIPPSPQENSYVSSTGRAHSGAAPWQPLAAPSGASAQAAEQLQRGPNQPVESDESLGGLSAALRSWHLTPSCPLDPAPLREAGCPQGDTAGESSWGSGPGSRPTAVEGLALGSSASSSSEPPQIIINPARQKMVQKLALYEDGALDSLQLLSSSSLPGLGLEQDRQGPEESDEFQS
Experiment [15] deals with Mitogen-activated protein kinase kinase kinase kinase 1 (Homo sapiens) (UniProt Q92918). Nature of the experiment: Inhibition of HPK1 in human NCI-H929 cells at 10 uM by mass spectroscopic analysis relative to control. In kind it is cell-based.
Mitogen-activated protein kinase kinase kinase kinase 1 (Homo sapiens), sequence (Q92918 whole entry, looked up): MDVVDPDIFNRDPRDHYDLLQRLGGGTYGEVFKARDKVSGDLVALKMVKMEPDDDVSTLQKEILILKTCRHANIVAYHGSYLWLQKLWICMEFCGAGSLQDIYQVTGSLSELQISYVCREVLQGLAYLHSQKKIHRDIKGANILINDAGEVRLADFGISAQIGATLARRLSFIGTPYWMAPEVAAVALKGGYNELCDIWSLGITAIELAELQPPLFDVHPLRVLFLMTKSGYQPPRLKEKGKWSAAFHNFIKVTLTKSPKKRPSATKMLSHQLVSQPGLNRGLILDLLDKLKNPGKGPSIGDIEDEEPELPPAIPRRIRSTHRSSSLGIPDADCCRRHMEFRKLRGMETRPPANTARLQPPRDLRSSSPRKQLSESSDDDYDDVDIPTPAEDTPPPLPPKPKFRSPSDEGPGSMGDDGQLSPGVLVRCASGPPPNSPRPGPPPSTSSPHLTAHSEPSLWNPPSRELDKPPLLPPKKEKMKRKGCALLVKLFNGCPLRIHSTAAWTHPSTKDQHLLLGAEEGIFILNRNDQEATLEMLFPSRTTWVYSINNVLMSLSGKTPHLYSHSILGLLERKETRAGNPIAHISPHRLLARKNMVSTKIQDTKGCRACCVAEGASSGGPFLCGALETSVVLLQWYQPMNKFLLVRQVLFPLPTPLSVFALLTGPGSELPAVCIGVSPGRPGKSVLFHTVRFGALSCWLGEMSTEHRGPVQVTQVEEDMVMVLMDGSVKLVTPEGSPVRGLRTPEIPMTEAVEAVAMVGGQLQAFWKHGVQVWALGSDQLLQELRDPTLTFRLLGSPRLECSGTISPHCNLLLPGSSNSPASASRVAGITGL
The target in experiment [16] is NUAK family SNF1-like kinase 2 (Homo sapiens) (UniProt Q9H093). Briefly: Inhibition of NuaK2 in human NCI-H929 cells at 10 uM by mass spectroscopic analysis relative to control. In kind it is cell-based.
NUAK family SNF1-like kinase 2 (Homo sapiens), sequence (Q9H093 whole entry): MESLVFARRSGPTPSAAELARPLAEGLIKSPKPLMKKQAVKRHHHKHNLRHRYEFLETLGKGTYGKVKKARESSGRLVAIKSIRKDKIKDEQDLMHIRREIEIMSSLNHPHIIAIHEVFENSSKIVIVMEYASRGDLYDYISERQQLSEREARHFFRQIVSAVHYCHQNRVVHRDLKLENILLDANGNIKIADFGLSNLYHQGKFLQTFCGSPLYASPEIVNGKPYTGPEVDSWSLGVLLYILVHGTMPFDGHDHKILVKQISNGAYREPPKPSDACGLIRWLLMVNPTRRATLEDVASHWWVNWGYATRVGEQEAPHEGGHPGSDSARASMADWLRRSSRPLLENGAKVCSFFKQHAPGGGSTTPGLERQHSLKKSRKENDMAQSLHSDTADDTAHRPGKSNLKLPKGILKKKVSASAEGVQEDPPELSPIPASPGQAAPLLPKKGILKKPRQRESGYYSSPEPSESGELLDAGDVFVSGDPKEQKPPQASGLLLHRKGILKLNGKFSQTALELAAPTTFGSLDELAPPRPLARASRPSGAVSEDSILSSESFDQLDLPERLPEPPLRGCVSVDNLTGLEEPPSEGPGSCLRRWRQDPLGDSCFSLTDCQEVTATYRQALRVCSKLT
Experiment [17] has as its target Mitogen-activated protein kinase kinase kinase 3 (Homo sapiens) (UniProt Q99759). Briefly: Inhibition of MAP3K3 in human NCI-H929 cells at 10 uM by mass spectroscopic analysis relative to control. In kind it is cell-based.
In experiment [18] the target is Serine/threonine-protein kinase SMG1 (Homo sapiens) (UniProt Q96Q15). Nature of the experiment: Inhibition of SMG1 in human NCI-H929 cells at 10 uM by mass spectroscopic analysis relative to control. It is filed as cell-based.
The target in experiment [19] is Casein kinase I isoform delta (Homo sapiens) (UniProt P48730). Briefly: Inhibition of CK1d in human NCI-H929 cells at 10 uM by mass spectroscopic analysis relative to control. In kind it is cell-based.
Experiment [20] deals with Aurora kinase A (Homo sapiens) (UniProt O14965). Briefly: Inhibition of AURA in human NCI-H929 cells at 10 uM by mass spectroscopic analysis relative to control. It is filed as cell-based.
Experiment [21] relates to NCI-H929. Briefly: Upregulation of p21 protein level in human NCI-H929 cells at 1 uM measured after 24 hrs by Western blot analysis. It is filed as functional, cell-based. A general note: A western blot detects proteins with antibodies after separation by electrophoresis.
The test system of experiment [22] is NCI-H929. Nature of the experiment: Upregulation of BAX protein level in human NCI-H929 cells at 1 uM measured after 24 hrs by Western blot analysis. It is filed as functional, cell-based.
The target of experiment [23] is Mitogen-activated protein kinase kinase kinase 2 (Homo sapiens) (UniProt Q9Y2U5). Nature of the experiment: Inhibition of MAP3K2 in human NCI-H929 cells at 10 uM by mass spectroscopic analysis relative to control. It is filed as cell-based.
The subject of experiment [24] is NCI-H929. Briefly: Induction of apoptosis in human NCI-H929 cells assessed as induction of PARP cleavage at 1 uM measured after 24 hrs by Western blot analysis. In kind it is functional, cell-based.
For experiment [25], the target named is Casein kinase I isoform epsilon (Homo sapiens) (UniProt P49674). Briefly: Inhibition of CK1e in human NCI-H929 cells at 10 uM by mass spectroscopic analysis relative to control. It is filed as cell-based.
Casein kinase I isoform epsilon (Homo sapiens), sequence (P49674 whole entry, looked up, the tested form may be a part, canonical isoform): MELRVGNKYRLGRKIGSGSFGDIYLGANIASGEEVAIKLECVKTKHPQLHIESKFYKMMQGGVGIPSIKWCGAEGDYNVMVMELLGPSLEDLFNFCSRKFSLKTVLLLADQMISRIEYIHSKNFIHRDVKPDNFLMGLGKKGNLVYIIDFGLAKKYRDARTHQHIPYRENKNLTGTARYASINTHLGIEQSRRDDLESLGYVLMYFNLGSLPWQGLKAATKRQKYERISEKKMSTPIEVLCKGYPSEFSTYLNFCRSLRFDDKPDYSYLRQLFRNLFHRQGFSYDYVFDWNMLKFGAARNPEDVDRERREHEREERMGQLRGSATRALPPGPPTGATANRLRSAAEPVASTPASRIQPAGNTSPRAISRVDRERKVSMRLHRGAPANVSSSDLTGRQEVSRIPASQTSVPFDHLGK
Experiment [26] addresses Ribosomal protein S6 kinase alpha-1 (Homo sapiens) (UniProt Q15418). Nature of the experiment: Inhibition of RSK1 domain 1 in human NCI-H929 cells at 10 uM by mass spectroscopic analysis relative to control. It is filed as cell-based.
The target of experiment [27] is Dual specificity protein kinase CLK2 (Homo sapiens) (UniProt P49760). Nature of the experiment: Inhibition of CLK2 in human NCI-H929 cells at 10 uM by mass spectroscopic analysis relative to control. It is filed as cell-based.
Dual specificity protein kinase CLK2 (Homo sapiens), sequence (P49760 whole entry, looked up): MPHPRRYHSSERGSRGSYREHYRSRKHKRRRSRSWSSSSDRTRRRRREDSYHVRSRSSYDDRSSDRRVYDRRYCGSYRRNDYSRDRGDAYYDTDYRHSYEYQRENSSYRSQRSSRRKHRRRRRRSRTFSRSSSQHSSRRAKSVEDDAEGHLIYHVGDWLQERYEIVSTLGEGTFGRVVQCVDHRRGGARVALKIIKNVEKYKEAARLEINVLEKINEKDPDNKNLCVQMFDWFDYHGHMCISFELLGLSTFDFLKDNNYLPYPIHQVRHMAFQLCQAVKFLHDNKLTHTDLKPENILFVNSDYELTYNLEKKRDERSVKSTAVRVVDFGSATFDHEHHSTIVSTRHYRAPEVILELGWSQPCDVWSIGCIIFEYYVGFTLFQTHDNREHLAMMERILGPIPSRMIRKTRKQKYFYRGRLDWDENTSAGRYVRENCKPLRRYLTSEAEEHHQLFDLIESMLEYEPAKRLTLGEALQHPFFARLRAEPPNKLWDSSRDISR
For experiment [28], the target named is Mitogen-activated protein kinase kinase kinase 21 (Homo sapiens) (UniProt Q5TCX8). Briefly: Inhibition of MLK4 in human NCI-H929 cells at 10 uM by mass spectroscopic analysis relative to control. In kind it is cell-based.
For experiment [29], the target named is Serine/threonine-protein kinase 24 (Homo sapiens) (UniProt Q9Y6E0). Briefly: Inhibition of MST3 in human NCI-H929 cells at 10 uM by mass spectroscopic analysis relative to control. In kind it is cell-based.

As usually defined, the inhibition is the drop in the measured response relative to a control, in per cent. Read a low inhibition as a response near the control.

Active and inactive are the calls of the source. No cut-off for these calls is given here. Where only a bound is given, the exact number is not on record here.

Mitogen-activated protein kinase kinase kinase 3 (Homo sapiens), sequence (Q99759 whole entry): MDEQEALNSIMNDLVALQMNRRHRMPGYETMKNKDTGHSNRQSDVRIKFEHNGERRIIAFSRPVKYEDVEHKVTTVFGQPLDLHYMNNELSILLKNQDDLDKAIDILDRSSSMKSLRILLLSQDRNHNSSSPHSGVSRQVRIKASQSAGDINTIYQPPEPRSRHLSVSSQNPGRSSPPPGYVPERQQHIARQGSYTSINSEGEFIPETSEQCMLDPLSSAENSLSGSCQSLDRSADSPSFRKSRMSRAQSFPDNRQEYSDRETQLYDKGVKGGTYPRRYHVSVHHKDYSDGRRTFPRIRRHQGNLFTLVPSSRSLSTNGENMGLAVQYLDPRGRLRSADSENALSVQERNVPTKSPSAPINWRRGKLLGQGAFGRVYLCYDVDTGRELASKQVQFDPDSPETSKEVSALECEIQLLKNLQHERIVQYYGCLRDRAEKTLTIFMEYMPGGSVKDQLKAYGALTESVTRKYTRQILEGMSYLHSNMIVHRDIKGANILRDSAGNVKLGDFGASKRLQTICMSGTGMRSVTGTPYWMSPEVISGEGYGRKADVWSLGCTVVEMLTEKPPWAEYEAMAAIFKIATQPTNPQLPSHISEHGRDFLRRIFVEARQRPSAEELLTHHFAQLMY
Activin receptor type-1B (Homo sapiens), sequence (P36896 whole entry): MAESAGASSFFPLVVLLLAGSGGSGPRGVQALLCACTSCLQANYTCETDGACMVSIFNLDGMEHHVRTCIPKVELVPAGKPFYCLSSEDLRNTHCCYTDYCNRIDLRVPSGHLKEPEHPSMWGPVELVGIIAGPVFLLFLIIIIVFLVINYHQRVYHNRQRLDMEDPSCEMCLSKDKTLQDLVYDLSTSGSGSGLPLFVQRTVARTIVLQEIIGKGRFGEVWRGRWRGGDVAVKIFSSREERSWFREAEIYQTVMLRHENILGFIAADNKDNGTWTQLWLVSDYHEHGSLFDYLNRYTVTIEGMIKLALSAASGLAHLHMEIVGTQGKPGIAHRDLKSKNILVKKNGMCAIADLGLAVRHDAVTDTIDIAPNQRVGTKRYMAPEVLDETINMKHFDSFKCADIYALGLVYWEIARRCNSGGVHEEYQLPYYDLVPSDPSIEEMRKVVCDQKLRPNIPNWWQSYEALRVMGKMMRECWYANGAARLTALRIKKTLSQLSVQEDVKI

Turning to `COc1cc(NS(=O)(=O)C2CC2)ccc1-c1cnc(N)c(-c2ccc3c(c2)CCNC3=O)c1`, the inhibition in experiment [1] stood at 0%; in experiment [2] it was 75%; in [3], 50%; in experiment [4] it was 0%; in [5] it was 75%; in [6] it was 0%. The inhibition in experiment [7] is 75%; in experiment [8] it was 50%; in experiment [9], 75%; in experiment [10], 0%; in experiment [11] it was 0%; in experiment [12], over 90%. Moreover, the inhibition in experiment [13], in experiment [14], in experiment [15] and in experiment [16] was 0% throughout.
As to `Nc1ncc(-c2cccc3ncsc23)cc1-c1ccc2c(c1)CCNC2=O`, the inhibition in experiment [1] was 50%; in [8] it was 50%; in [17], 0%; in [10], 50%; in [18] it was 50%; in experiment [15], 50%. For the same compound, the inhibition in [16] amounted to 50%.
For `Nc1ncc(-c2cccc([N+](=O)[O-])c2F)cc1-c1ccc2c(c1)CCNC2=O`, the inhibition in [19] was over 90%; in experiment [20], under 90%; in [23], under 50%; in [25], over 90%; in experiment [26], under 75%; in experiment [27], 0%. Besides, the outcome in [21], in experiment [22] and in experiment [24] was Active.
Regarding `Nc1ncc(-c2ccc(NS(=O)(=O)C3CC3)cc2OC2CCCCC2)cc1-c1ccc2c(c1)CCNC2=O`, the inhibition in experiment [2] is over 90%; in [5] it was 50%; in experiment [6] it was 50%; in experiment [7], over 90%; in experiment [28], 50%; in experiment [18] it was 50%. For the same compound, the inhibition was over 90% in experiment [29], under 75% in experiment [26] and 50% in experiment [27].
As to `Nc1ncc(-c2ccc(NS(=O)(=O)C3CC3)cc2F)cc1-c1ccc2c(c1)CCNC2=O`, the inhibition in experiment [20] was under 75%.
In the case of `CN(C1CC1)S(=O)(=O)c1ccc(-c2cnc(N)c(-c3ccc4c(c3)CCNC4=O)c2)c(F)c1`, the inhibition in [19] was found to be 50%; in experiment [3], 50%; in experiment [17], 0%; in experiment [29], 50%; in [25], 50%; in experiment [14], 50%.
